Patent publication US10611778B2, “Fused bicyclic inhibitors of menin-MLL interaction” (Janssen Pharmaceutica NV, priority 2016, dated 2020)
Read-outs that look alike come from different tables or passages of the source.

Target: T1, Menin/MLL (terbium chelate-labeled menin, FITC-MBM1 peptide) (Homo sapiens, UniProt O00255, T541A)
T1 construct: Menin (a.a. 1-610-6×his tag) was labeled with terbium cryptate as follows
T1 sequence (O00255 with tags, fused parts or gaps T541A): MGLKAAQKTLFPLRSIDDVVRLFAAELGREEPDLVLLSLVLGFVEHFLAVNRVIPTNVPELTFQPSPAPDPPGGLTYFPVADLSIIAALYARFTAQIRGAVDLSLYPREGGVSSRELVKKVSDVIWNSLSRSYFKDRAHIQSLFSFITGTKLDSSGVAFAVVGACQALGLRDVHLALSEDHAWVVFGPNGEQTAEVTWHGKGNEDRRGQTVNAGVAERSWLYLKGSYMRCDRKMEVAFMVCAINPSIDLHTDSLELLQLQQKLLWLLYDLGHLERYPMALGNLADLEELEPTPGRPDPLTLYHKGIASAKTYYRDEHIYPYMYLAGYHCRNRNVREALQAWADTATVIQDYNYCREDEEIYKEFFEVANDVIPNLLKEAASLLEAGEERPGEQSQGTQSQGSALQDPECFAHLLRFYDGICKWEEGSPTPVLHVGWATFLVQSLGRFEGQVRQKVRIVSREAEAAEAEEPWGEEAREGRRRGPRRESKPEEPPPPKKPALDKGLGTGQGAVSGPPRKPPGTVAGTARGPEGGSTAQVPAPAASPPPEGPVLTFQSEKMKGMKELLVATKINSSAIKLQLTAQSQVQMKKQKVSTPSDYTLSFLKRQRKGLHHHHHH
Experiment: Menin/MLL homogenous time-resolved fluorescence (HTRF) assay
Assay type: binding
Method in brief: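 Compound preincubated 5 min with terbium-cryptate-labeled menin (aa 1-610, His-tagged; 100 pM final), then 75 nM FITC-MBM1 peptide added, 15 min at ambient temperature; 0.5% DMSO, Tris pH 7.5 buffer. HTRF ratio 520/490 nm; % inhibition vs saturating competitor, IC50 from 11-point three-fold titration from 31 μM.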

[1] = averaged values over all measurements, read-out: Menin HTRF assay (IC50)

IC50 [1] | IC50 (individual measurements (not averaged), read-out: (3) Menin HTRF assay (IC50 (nM))) | SMILES
476 nM | – | Fc1ccccc1CN1CC[C@H]2CN(c3ncnc4sc(CC(F)(F)F)cc34)CC[C@H]21 (single isomer, unassigned) [Compound 6]
– | 48 nM | FC(F)(F)Cc1cc2c(N3CC[C@H]4[C@H](CCN4Cc4ccc[nH]4)C3)ncnc2s1 (single isomer, unassigned) [Compound 8]
113 nM | – | FC(F)(F)Cc1cc2c(N3CCC4C(CCN4Cc4ccccc4)C3)ncnc2s1 (stereo not shown) [Compound 1]
797 nM | – | FC(F)(F)Cc1cc2c(N3CCC4C3CCN4Cc3ccccc3)ncnc2s1 (stereo not shown) [Compound 2]
